Test results taken from PubChem BioAssay AID2060888 (Molecular Pharmacology Branch, DTP, NCI, 2025).

Tested on: 695427-040-R-J1-PDC complex spheroid viability
Test: Anticancer human tumor 695427-040-R-J1-PDC patient-derived colon adenocarcinoma cell line growth inhibition [RAS]
Settings: for IC50: curve of first compound; for viability, T/C: stronger effect = lower value
Description: RAS pathway inhibitors in Combinations in Complex Spheroids
A high-throughput screen of multi-cell type tumor spheroids was designed to identify active combinations of RAS pathway inhibitors and targeted small molecules. Complex spheroids include a stromal component modeled by human endothelial cells (HUVEC) and fibroblasts modeled by human mesenchymal stem cells (MSCs). The concentration ranges selected for each drug and investigational agent were based upon clinically achievable concentrations if the clinical Cmax of the agent was known.
Compounds. The drugs and investigational agents: abemaciclib (NSC768073), cobimetinib (NSC768068), divarasib (GDC6063, NSC841802), docetaxel (NSC628503), GDC-1971 (RLY-1971, NSC841576), gemcitabine (NSC613327), inavolisib (NSC800729), ipatasertib (NSC767898), KB-0742 (NSC834161), MRTX-1133 (NSC836407), osimertinib (NSC779217), RMC-4630 (NSC839698), RMC-6236 (NSC851965), RMC-6291 (NSC852671), Ro-3306 (NSC812927), sapanisertib (NSC764658), SN-38 (NSC673596), staurosporine (NSC755774), SY5609 (NSC837396), and tovorafenib (DAY101, NSC766906), were obtained from the National Cancer Institute (NCI) Developmental Therapeutics Program Chemical Repository. The FDA-approved anticancer drug set is available from the NCI Developmental Therapeutics Program. […] The stock solutions were prepared in dimethyl sulfoxide (DMSO, Sigma-Aldrich, St. Louis, MO, cat. D2650) at 800-fold the tested concentration and stored at -70 degrees C prior to their use. All drugs and investigational agents were tested over a range starting from a high concentration at or near the clinical Cmax and decreasing in half-log increments. If the clinical Cmax for an agent had not been determined, the highest concentration tested was 10 microM.
Cell Culture. All cells were maintained in an incubator at 37 degrees C and 5% CO2 with 95% humidity. The PDC lines were cultured according to standard operating procedures established by the NCI PDMR. All PDCs were thawed and cultured in Matrigel-coated flasks prepared with a working solution of 1X Ham's F-12 nutrient mix, without supplementation (Invitrogen, Waltham, MA, cat. 11765054), 100 U/mL penicillin-streptomycin (Invitrogen, cat. 15140122), and 2.5% Matrigel (Corning Inc., Corning, NY, cat. 354248) for the first three passages. The 362531-283-R-J2-PDC and 782815-120-R-J1-PDC lines were cultured in 6C/Colon 1B media, which includes advanced DMEM/F-12 (Thermo Fisher Scientific, cat. 12634028), 10 mM HEPES (Thermo Fisher Scientific, cat. 15630080), 1X GlutaMAX supplement (Thermo Fisher Scientific, cat. 35050061), 0.1 mg/mL primocin (InvivoGen, San Diego, CA, cat. ant-pm-2), 10% defined fetal bovine serum, heat inactivated (HyClone Laboratories Inc., Logan, UT, cat. SH30070.03HI), 50% L-WRN conditioned media (ATCC, cat. CRL-3276), 1.25 mM N-Acetyl-L-cysteine (Sigma-Aldrich, cat. A9165), 10 mM nicotinamide (Sigma-Aldrich, cat. N0636), 1X B-27 supplement (Thermo Fisher Scientific, cat. 17504044), 1X N-2 supplement (Thermo Fisher Scientific, cat. 17502048), 50 ng/mL human EGF (Thermo Fisher Scientific, cat. PHG0311), and 10 microM Y-27632 dihydrochloride (Tocris Bioscience, cat. 1254). The K12877-001-R-J1-PDC line was cultured in 6I media, which includes all 6C/Colon 1B media plus 10 ng/mL human FGF-10 (PeproTech, cat. 100-26), 1 ng/mL human FGF-2 (PeproTech, cat. 100-18B), 1 µM prostaglandin E2 (Tocris Bioscience, cat. 2296), […] hydrocortisone (Sigma-Aldrich, cat. H4001), and […] bovine insulin (Sigma-Aldrich, cat. I6634). The K86415-001-R-J1-PDC line was cultured in 6D media, which includes all 6C/Colon 1B media components minus the L-WRN conditioned media. The 485176-168-R4-J1-PDC was cultured in PANC media, which includes all 6C/Colon 1B media plus 100 ng/mL human FGF-10 (PeproTech, cat. 100-26), 500 nM SB-431542 (Selleckchem, cat. S1067), and 10 nM gastrin (Tocris Bioscience, cat. 3006). […]
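Also: viability read after seven days of drug exposure.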
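For viability, T/C in this document: 100% = DMSO vehicle control viability.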

CCN1CCN(Cc2ccc(Nc3ncc(F)c(-c4cc(F)c5nc(C)n(C(C)C)c5c4)n3)nc2)CC1 + C#Cc1c(F)ccc2cc(O)cc(-c3ncc4c(N5CC6CCC(C5)N6)nc(OCC56CCCN5CC(F)C6)nc4c3F)c12
IC50 (second compound 0.0316 µM): > 1000 nM | IC50 (second compound 0.1 µM): > 1000 nM | IC50 (second compound 0.316 µM): > 1000 nM | IC50 (second compound 1 µM): > 1000 nM | IC50 (second compound 3.16 µM): > 1000 nM | IC50 (second compound 10 µM): < 3.16 nM | viability, T/C (second compound 0.0316 µM, first compound 0.00316 µM): 94.9% | viability, T/C (second compound 0.0316 µM, first compound 0.01 µM): 102% | viability, T/C (second compound 0.0316 µM, first compound 0.0316 µM): 85.8% | viability, T/C (second compound 0.0316 µM, first compound 0.1 µM): 88.4% | viability, T/C (second compound 0.0316 µM, first compound 0.316 µM): 100% | viability, T/C (second compound 0.0316 µM, first compound 1 µM): 106% | viability, T/C (second compound 0.1 µM, first compound 0.00316 µM): 93% | viability, T/C (second compound 0.1 µM, first compound 0.01 µM): 92.9% | viability, T/C (second compound 0.1 µM, first compound 0.0316 µM): 90.5% | viability, T/C (second compound 0.1 µM, first compound 0.1 µM): 79.4% | viability, T/C (second compound 0.1 µM, first compound 0.316 µM): 91.6% | viability, T/C (second compound 0.1 µM, first compound 1 µM): 96.3% | viability, T/C (second compound 0.316 µM, first compound 0.00316 µM): 83.1% | viability, T/C (second compound 0.316 µM, first compound 0.01 µM): 85.3% | viability, T/C (second compound 0.316 µM, first compound 0.0316 µM): 78.1% | viability, T/C (second compound 0.316 µM, first compound 0.1 µM): 78.6% | viability, T/C (second compound 0.316 µM, first compound 0.316 µM): 77.7% | viability, T/C (second compound 0.316 µM, first compound 1 µM): 85.6% | viability, T/C (second compound 1 µM, first compound 0.00316 µM): 75.2% | viability, T/C (second compound 1 µM, first compound 0.01 µM): 68.1% | viability, T/C (second compound 1 µM, first compound 0.0316 µM): 61% | viability, T/C (second compound 1 µM, first compound 0.1 µM): 60.5% | viability, T/C (second compound 1 µM, first compound 0.316 µM): 74.1% | viability, T/C (second compound 1 µM, first compound 1 µM): 71.3% | viability, T/C (second compound 3.16 µM, first compound 0.00316 µM): 53.3% | viability, T/C (second compound 3.16 µM, first compound 0.01 µM): 52.9% | viability, T/C (second compound 3.16 µM, first compound 0.0316 µM): 51.2% | viability, T/C (second compound 3.16 µM, first compound 0.1 µM): 48.2% | viability, T/C (second compound 3.16 µM, first compound 0.316 µM): 50.6% | viability, T/C (second compound 3.16 µM, first compound 1 µM): 62% | viability, T/C (second compound 10 µM, first compound 0.00316 µM): 41.1% | viability, T/C (second compound 10 µM, first compound 0.01 µM): 45.2% | viability, T/C (second compound 10 µM, first compound 0.0316 µM): 36.4% | viability, T/C (second compound 10 µM, first compound 0.1 µM): 33.1% | viability, T/C (second compound 10 µM, first compound 0.316 µM): 30.8% | viability, T/C (second compound 10 µM, first compound 1 µM): 32.6%
